Results on five compounds are retold here after ChEMBL document CHEMBL1142226, “Impact of physicochemical and structural properties on the pharmacokinetics of a series of alpha1L-adrenoceptor antagonists” (Drug Metab Dispos, 2007).

Series [1] is described as follows: Antagonist activity at alpha-1L-adrenoceptor in human prostate assessed as inhibition of noradrenaline-mediated contraction. Type of series: functional, tissue-based, Prostate gland.
Series [2] is described as follows: Antagonist activity at alpha-1-adrenoceptor in rat aorta assessed as inhibition of noradrenaline-mediated contraction. The class given is functional, tissue-based.
Series [3] is described as follows: Oral bioavailability in Beagle dog at 4 mg/kg. Type of series: ADME, organism-based, Canis lupus familiaris. The note with it: in vivo.
Series [4] in a line: Oral absorption in Beagle dog at 4 mg/kg, po. The conditions noted are these: in vivo, read-out: Fabs. Also on record: dose 4 mg/kg, route oral. The class given is ADME, organism-based, Canis lupus familiaris.
Series [5] can be described thus: Elimination half life in Sprague-Dawley rat at 0.5 mg/kg, iv. Type of series: ADME, organism-based. The conditions noted are these: in vivo. Also on record: dose 0.5 mg/kg, route intravenous.
The nature of series [6]: Plasma clearance in Sprague-Dawley rat at 0.5 mg/kg, iv. Type of series: ADME, organism-based. Also on record: dose 0.5 mg/kg, route intravenous.
The subject of series [7] is Rattus norvegicus. As to the kind of experiment: Unbound plasma clearance in Sprague-Dawley rat at 0.5 mg/kg, iv. Type of series: ADME, organism-based. Also on record: dose 0.5 mg/kg, route intravenous. The conditions noted are these: in vivo.
The nature of series [8]: Volume of distribution in Sprague-Dawley rat at 0.5 mg/kg, iv. The class given is ADME, organism-based. Also on record: dose 0.5 mg/kg, route intravenous. The note with it: in vivo.
Series [9] has as its system Rattus norvegicus. As to the kind of experiment: Unbound volume of distribution in Sprague-Dawley rat at 0.5 mg/kg, iv. The conditions noted are these: in vivo. Also on record: dose 0.5 mg/kg, route intravenous. The class given is ADME, organism-based.
Series [10] in a line: Cmax in Sprague-Dawley rat at 4 mg/kg, po. The class given is ADME, organism-based. Also on record: dose 4 mg/kg, route oral. The conditions noted are these: in vivo.
Series [11] in a line: Tmax in Sprague-Dawley rat at 4 mg/kg, po. Type of series: ADME, organism-based. Also on record: dose 4 mg/kg, route oral. The note with it: in vivo.
Series [12] in a line: Elimination half life in Sprague-Dawley rat at 4 mg/kg, po. Also on record: dose 4 mg/kg, route oral. Type of series: ADME, organism-based. The note with it: in vivo.
Series [13] in a line: Oral bioavailability in Sprague-Dawley rat at 4 mg/kg. Type of series: ADME, organism-based. The note with it: in vivo.
Series [14] is described as follows: Cmax in human at 0.86 mg/kg, po. Also on record: dose 0.86 mg/kg, route oral. The class given is ADME, organism-based. The conditions noted are these: in vivo.
Series [15] can be described thus: Tmax in human at 0.86 mg/kg, po. The class given is ADME, organism-based. Also on record: dose 0.86 mg/kg, route oral. The note with it: in vivo.
Series [16] can be described thus: Elimination half life in human at 0.86 mg/kg, po. The note with it: in vivo. Also on record: dose 0.86 mg/kg, route oral. The class given is ADME, organism-based.
Series [17] is described as follows: Protein binding in Sprague-Dawley rat plasma at 1 ug/ml. Type of series: ADME, cell-free. The note with it: read-out: PPB (converted).
Series [18] in a line: Protein binding in Beagle dog plasma at 1 ug/ml. The class given is ADME, cell-free, Canis lupus familiaris. The conditions noted are these: read-out: PPB (converted).
Series [19] is described as follows: Lipophilicity, log D in 0.1M potassium phosphate buffer at pH 7.4. Type of series: physicochemical.
Series [20] is described as follows: Dissociation constant, pKa of the compound. Type of series: physicochemical.
Series [21] is described as follows: Elimination half life in Beagle dog at 0.5 mg/kg, iv. The class given is ADME, organism-based, Canis lupus familiaris. Also on record: dose 0.5 mg/kg, route intravenous. The note with it: in vivo.
A short description of series [22]: Plasma clearance in Beagle dog at 0.5 mg/kg, iv. The class given is ADME, organism-based, Canis lupus familiaris. Also on record: dose 0.5 mg/kg, route intravenous.
The test system of series [23] is Canis familiaris. Description: Unbound plasma clearance in Beagle dog at 0.5 mg/kg, iv. Type of series: ADME, organism-based, Canis lupus familiaris. Also on record: dose 0.5 mg/kg, route intravenous. The conditions noted are these: in vivo.
A short description of series [24]: Volume of distribution in Beagle dog at 0.5 mg/kg, iv. The class given is ADME, organism-based, Canis lupus familiaris. Also on record: dose 0.5 mg/kg, route intravenous. The note with it: in vivo.
Series [25] concerns Canis familiaris. As to the kind of experiment: Unbound volume of distribution in Beagle dog at 0.5 mg/kg, iv. The class given is ADME, organism-based, Canis lupus familiaris. Also on record: dose 0.5 mg/kg, route intravenous. The note with it: in vivo.
A short description of series [26]: Metabolic stability in human liver microsomes assessed as half life at 1 uM. The class given is ADME, Microsome. On the technique in general: Microsomes from liver hold many membrane-bound enzymes, among them those of drug oxidation.
The nature of series [27]: Fraction unbound in human liver microsomes at 1 uM. Type of series: ADME, Microsome.
In another series the test system is Liver microsomes. Description: Unbound intrinsic clearance in human liver microsomes at 1 uM. Type of series: ADME, Microsome.
Series [28] in a line: Metabolic stability in Beagle dog liver microsomes assessed as half life at 1 uM. The class given is ADME, Canis lupus familiaris, Microsome.
A short description of series [29]: Fraction unbound in Beagle dog liver microsomes at 1 uM. The class given is ADME, Canis lupus familiaris, Microsome.
The next series has as its system Liver. As to the kind of experiment: Unbound intrinsic clearance in Beagle dog liver microsomes at 1 uM. Type of series: ADME, Canis lupus familiaris, Microsome.
The species entered for a further series is Homo sapiens. Description: Protein binding in human plasma at 1 ug/ml. The conditions noted are these: read-out: PPB (converted).
Series [30] is described as follows: Metabolic stability in Sprague-Dawley rat assessed as hepatic extraction ratio. Type of series: ADME, tissue-based. The note with it: liver.
Series [31] can be described thus: Metabolic stability in Sprague-Dawley rat bile assessed as drug remaining. Type of series: ADME.
Series [32] in a line: Metabolic stability in Sprague-Dawley rat liver microsomes assessed as half life. Type of series: ADME, Microsome.
Series [33] is described as follows: Oral bioavailability in Beagle dog at 0.5 mg/kg. The class given is ADME, organism-based, Canis lupus familiaris. The conditions noted are these: in vivo.
The nature of series [34]: Oral absorption in Beagle dog at 0.5 mg/kg, po. The class given is ADME, organism-based, Canis lupus familiaris. The note with it: in vivo, read-out: Fabs. Also on record: dose 0.5 mg/kg, route oral.

For orientation: pA2 means the negative logarithm of the molar antagonist concentration that doubles the agonist concentration needed for the same response. The bioavailability is the share of a dose that reaches the circulation, judged against a reference dose that is usually intravenous. Read a low bioavailability as poor availability. By half-life is commonly meant the time in which the quantity being followed falls by half. A word on the clearance: it is the rate of elimination divided by the concentration. As usually defined, the Cmax is the highest concentration seen after dosing. What is called Tmax is the time from dosing to the highest level. For orientation: logD means the decadic logarithm of the distribution of all forms, ionised or not, between an organic phase and buffer at a given pH. Read a low logD as lower lipophilicity. What is called pKa is the pH at which an ionisable group is half protonated. A higher pKa goes with a weaker acid or stronger base.

Turning to `COc1cc2nc(N3CCN(C(=O)C4CCCO4)CC3)nc(N)c2cc1OC` (centres undefined) [TERAZOSIN], the pA2 in series [1] is reported as 9.8; in series [2], 10.

Regarding `COc1cc2nc(N3CCCN(C(=O)N4CCOCC4)CC3)cc(N)c2c(-c2ccc(F)cc2)c1OC`, the figures for the bioavailability in [3] and in [13] were 71% and 11%, respectively. The Fa in [4] turned out to be 100%. For the same compound, the half-life in series [5] is 1 h; in [12] it was 2.8 h; in [16], 12 h; in [21] it was 6.3 h. Moreover, the values for the clearance in series [6] and in series [22] were 5.46 L/h/kg and 0.9 L/h/kg, respectively. Also, the CL in the series on Rattus norvegicus [7] was 3675 L/h/kg; with Canis familiaris [23] it was 32.2 L/h/kg; in the series with Liver microsomes, 9.24 L/h/kg; with Liver, 6 L/h/kg. The Vd was 5.6 L/kg in series [8], 70 L/kg with Rattus norvegicus [9], 4.8 L/kg in series [24] and 96 L/kg with Canis familiaris [25]. Also, the highest concentration (Cmax) in [10] came out at 0.014 µg/mL; in series [14] it was 0.063 µg/mL. For the same compound, the results for the time of peak concentration (Tmax) in [11] and in series [15] were 4 h and 0.7 h, respectively. Further, the fraction unbound at 1 ug/ml in series [17] is 0.08; in series [18], 0.04; in the series filed under Homo sapiens it was 0.06. The same compound came in with a logD in series [19] of 1.8. The pKa in [20] is 8.5. Moreover, the half-life at 1 µM in series [26] was 6 min; in [28], 0.5 h. Further, the fraction unbound at 1 µM is 0.331 in [27] and 0.602 in series [29].

`COc1cc2nc(N3CCCN(C(=O)N4CC(O)C(O)C4)CC3)nc(N3CC4C(CC(=O)OC(C)(C)C)C4C3)c2cc1OC` (centres undefined): the hepatic extraction ratio in series [30] turned out to be 0.75. In addition, in series [31], the Stability turned out to be 90%. Besides, in series [32], the half-life is above 2 h.

For the compound `COc1cc2c(cc1OC)CN(c1cc(N3CCCN(C(=O)N4CC(O)C(O)C4)CC3)nc3cc(OC)c(OC)cc13)CC2` (centres undefined), the hepatic extraction ratio in series [30] is 0.8. Moreover, the Stability in [31] is recorded as 90%. Also, the half-life in [32] was above 2 h.

Compound `COc1cc2nc(N3CCCN(C(=O)N4CCOCC4)CC3)cc(N)c2c(-c2ccccc2)c1OC` registered a bioavailability in series [33] of 24%. In addition, the Fa in series [34] is 29%. For the same compound, in series [18], the fraction unbound at 1 ug/ml was 0.12. In series [19], this compound yielded a logD of 1.8. The compound further came in with a pKa in series [20] of 8.5. In series [21], this compound had a half-life of 3.6 h. In [22], this compound displayed a clearance of 0.528 L/h/kg. Further, the results for the CL in the series with Canis familiaris [23], in the series with Liver microsomes and in the series with Liver were 5.28 L/h/kg, 4.92 L/h/kg and 7.32 L/h/kg, respectively. In addition, the Vd in [24] is 2.8 L/kg; with Canis familiaris [25], 23 L/kg. In addition, the half-life at 1 µM in [26] amounted to 9 min; in series [28] it was 0.417 h. The fraction unbound at 1 µM in series [27] came to 0.414; in series [29], 0.59.
